Test results as given in US20230085307A1, “PYRIDAZINONE COMPOUND AND HERBICIDE” (NISSAN CHEMICAL CORPORATION, priority 2019, published 2023).

Key:
wild oat [1] = experiment: Test Example 4: herbicidal effect by soil treatment (Table 19, symbol I); type: in vivo, wild oat (Avena fatua); settings: amount of applied herbicide 320 g/ha
Procedure, shortened: (§1)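 Seeds were sown in sterilized diluvial soil and covered with about 1.5 cm of soil. An emulsion formulation diluted with water to a predetermined herbicide amount was sprayed evenly onto the soil surface. Plants grew in a greenhouse at 25° C. to 30° C., and the effect was scored three weeks after application using criteria from an earlier test.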

blackgrass [2] = experiment: Test Example 4: herbicidal effect by soil treatment (Table 19, symbol J); type: in vivo, blackgrass (Alopecurus myosuroides); settings: amount of applied herbicide 320 g/ha
Procedure, shortened: as §1

barnyard grass [3] = experiment: Test Example 3: herbicidal effect by foliage application, Wagner pot (Table 18, symbol H); type: in vivo, barnyard grass (Echinochloa crus-galli); settings: amount of applied herbicide 320 g/ha
Procedure, shortened: (§2)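 Plants were sown in alluvial soil held under 0.1–0.5 cm standing water and grown 14 days in a greenhouse at 25–30 °C. An emulsifiable formulation, water-diluted to the set dose, was then sprayed onto the foliage, and effects were scored three weeks later using previously defined criteria.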

persian speedwell [4] = experiment: Test Example 5: herbicidal effect by foliage application, plastic box (Table 20, symbol R); type: in vivo, Persian speedwell (Veronica persica); settings: foliage application, 320 g/ha
Procedure, shortened: (§3)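 Plants sown in sterilized diluvial soil and grown 14 days in a greenhouse at 25° C to 30° C, then sprayed on the foliage with the compound's emulsion diluted in water to a predetermined herbicide amount. Injury to weeds and crops scored three weeks after application on a visual rating scale.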

persian speedwell [5] = experiment: Test Example 4: herbicidal effect by soil treatment (Table 19, symbol R); type: in vivo, Persian speedwell (Veronica persica); settings: amount of applied herbicide 320 g/ha
Procedure, shortened: as §1

windgrass [6] = experiment: Test Example 4: herbicidal effect by soil treatment (Table 19, symbol L); type: in vivo, windgrass (Apera spica-venti); settings: amount of applied herbicide 320 g/ha
Procedure, shortened: as §1

barnyard grass [7] = experiment: Test Example 4: herbicidal effect by soil treatment (Table 19, symbol H); type: in vivo, barnyard grass (Echinochloa crus-galli); settings: amount of applied herbicide 320 g/ha
Procedure, shortened: as §1

Chinese sprangletop = experiment: Test Example 3: herbicidal effect by foliage application, Wagner pot (Table 18, symbol D); type: in vivo, chinese sprangletop (Leptochloa chinensis); settings: amount of applied herbicide 320 g/ha
Procedure, shortened: as §2

barnyard grass [8] = experiment: Test Example 5: herbicidal effect by foliage application, plastic box (Table 20, symbol H); type: in vivo, barnyard grass (Echinochloa crus-galli); settings: foliage application, 320 g/ha
Procedure, shortened: as §3

velvetleaf [9] = experiment: Test Example 4: herbicidal effect by soil treatment (Table 19, symbol M); type: in vivo, velvetleaf (Abutilon theophrasti); settings: amount of applied herbicide 320 g/ha
Procedure, shortened: as §1

false cleavers [10] = experiment: Test Example 4: herbicidal effect by soil treatment (Table 19, symbol Q); type: in vivo, false cleavers (Galium spurium); settings: amount of applied herbicide 320 g/ha
Procedure, shortened: as §1

Italian ryegrass [11] = experiment: Test Example 5: herbicidal effect by foliage application, plastic box (Table 20, symbol K); type: in vivo, Italian ryegrass (Lolium multiflorum); settings: foliage application, 320 g/ha
Procedure, shortened: as §3

chickweed [12] = experiment: Test Example 5: herbicidal effect by foliage application, plastic box (Table 20, symbol P); type: in vivo, common chickweed (Stellaria media); settings: foliage application, 320 g/ha
Procedure, shortened: as §3

chickweed [13] = experiment: Test Example 4: herbicidal effect by soil treatment (Table 19, symbol P); type: in vivo, common chickweed (Stellaria media); settings: amount of applied herbicide 320 g/ha
Procedure, shortened: as §1

redroot pigweed [14] = experiment: Test Example 4: herbicidal effect by soil treatment (Table 19, symbol N); type: in vivo, redroot pigweed (Amaranthus retroflexus); settings: amount of applied herbicide 320 g/ha
Procedure, shortened: as §1

green foxtail [15] = experiment: Test Example 5: herbicidal effect by foliage application, plastic box (Table 20, symbol G); type: in vivo, green foxtail (Setaria viridis); settings: foliage application, 320 g/ha
Procedure, shortened: as §3

windgrass [16] = experiment: Test Example 5: herbicidal effect by foliage application, plastic box (Table 20, symbol L); type: in vivo, windgrass (Apera spica-venti); settings: foliage application, 320 g/ha
Procedure, shortened: as §3

southern crabgrass [17] = experiment: Test Example 5: herbicidal effect by foliage application, plastic box (Table 20, symbol F); type: in vivo, southern crabgrass (Digitaria ciliaris); settings: foliage application, 320 g/ha
Procedure, shortened: as §3

southern crabgrass [18] = experiment: Test Example 4: herbicidal effect by soil treatment (Table 19, symbol F); type: in vivo, southern crabgrass (Digitaria ciliaris); settings: amount of applied herbicide 320 g/ha
Procedure, shortened: as §1

Italian ryegrass [19] = experiment: Test Example 4: herbicidal effect by soil treatment (Table 19, symbol K); type: in vivo, Italian ryegrass (Lolium multiflorum); settings: amount of applied herbicide 320 g/ha
Procedure, shortened: as §1

redroot pigweed [20] = experiment: Test Example 5: herbicidal effect by foliage application, plastic box (Table 20, symbol N); type: in vivo, redroot pigweed (Amaranthus retroflexus); settings: foliage application, 320 g/ha
Procedure, shortened: as §3

velvetleaf [21] = experiment: Test Example 5: herbicidal effect by foliage application, plastic box (Table 20, symbol M); type: in vivo, velvetleaf (Abutilon theophrasti); settings: foliage application, 320 g/ha
Procedure, shortened: as §3

lambsquarters [22] = experiment: Test Example 4: herbicidal effect by soil treatment (Table 19, symbol O); type: in vivo, lambsquarters (Chenopodium album); settings: amount of applied herbicide 320 g/ha
Procedure, shortened: as §1

false cleavers [23] = experiment: Test Example 5: herbicidal effect by foliage application, plastic box (Table 20, symbol Q); type: in vivo, false cleavers (Galium spurium); settings: foliage application, 320 g/ha
Procedure, shortened: as §3

green foxtail [24] = experiment: Test Example 4: herbicidal effect by soil treatment (Table 19, symbol G); type: in vivo, green foxtail (Setaria viridis); settings: amount of applied herbicide 320 g/ha
Procedure, shortened: as §1

blackgrass [25] = experiment: Test Example 5: herbicidal effect by foliage application, plastic box (Table 20, symbol J); type: in vivo, blackgrass (Alopecurus myosuroides); settings: foliage application, 320 g/ha
Procedure, shortened: as §3

wild oat [26] = experiment: Test Example 5: herbicidal effect by foliage application, plastic box (Table 20, symbol I); type: in vivo, wild oat (Avena fatua); settings: foliage application, 320 g/ha
Procedure, shortened: as §3

rice flat sedge = experiment: Test Example 3: herbicidal effect by foliage application, Wagner pot (Table 18, symbol E); type: in vivo, rice flat sedge (Cyperus iria); settings: amount of applied herbicide 320 g/ha
Procedure, shortened: as §2

lambsquarters [27] = experiment: Test Example 5: herbicidal effect by foliage application, plastic box (Table 20, symbol O); type: in vivo, lambsquarters (Chenopodium album); settings: foliage application, 320 g/ha
Procedure, shortened: as §3

[28] = evaluated three weeks after application

## COc1ccc(F)cc1-c1sc2ccc(C)cc2c1-c1c(O)c(C)nn(C)c1=O [2-150]
Wild oat [1]
  I: wild oat, herbicidal effect rating: 0 (Herbicidal rate of 5% or less (almost no effect))
Blackgrass [2]
  J: blackgrass, herbicidal effect rating: 0 (Herbicidal rate of 5% or less (almost no effect))
Barnyard grass [3]
  herbicidal effect on H: barnyard grass: 4 (Herbicidal rate of 70% or more and less than 90%)
Persian speedwell [4]; [28]
  herbicidal effect on R: persian speedwell (criteria 0-5): 5 (Herbicidal rate of 90% or more (almost completely withered))
Persian speedwell [5]
  R: persian speedwell, herbicidal effect rating: 5 (Herbicidal rate of 90% or more (almost completely withered))
Windgrass [6]
  L: windgrass, herbicidal effect rating: 0 (Herbicidal rate of 5% or less (almost no effect))
Barnyard grass [7]
  H: barnyard grass, herbicidal effect rating: 0 (Herbicidal rate of 5% or less (almost no effect))
Chinese sprangletop
  herbicidal effect on D: Chinese sprangletop: 2 (Herbicidal rate of 20% or more and less than 40%)
Barnyard grass [8]; [28]
  herbicidal effect on H: barnyard grass (criteria 0-5): 0 (Herbicidal rate of 5% or less (almost no effect))
Velvetleaf [9]
  M: velvetleaf, herbicidal effect rating: 1 (Herbicidal rate of 5% or more and less than 20%)
False cleavers [10]
  Q: false cleavers, herbicidal effect rating: 0 (Herbicidal rate of 5% or less (almost no effect))
Italian ryegrass [11]; [28]
  herbicidal effect on K: Italian ryegrass (criteria 0-5): 3 (Herbicidal rate of 40% or more and less than 70%)
Chickweed [12]; [28]
  herbicidal effect on P: chickweed (criteria 0-5): 5 (Herbicidal rate of 90% or more (almost completely withered))
Chickweed [13]
  P: chickweed, herbicidal effect rating: 4 (Herbicidal rate of 70% or more and less than 90%)
Redroot pigweed [14]
  N: redroot pigweed, herbicidal effect rating: 3 (Herbicidal rate of 40% or more and less than 70%)
Green foxtail [15]; [28]
  herbicidal effect on G: green foxtail (criteria 0-5): 0 (Herbicidal rate of 5% or less (almost no effect))
Windgrass [16]; [28]
  herbicidal effect on L: windgrass (criteria 0-5): 3 (Herbicidal rate of 40% or more and less than 70%)
Southern crabgrass [17]; [28]
  herbicidal effect on F: southern crabgrass (criteria 0-5): 0 (Herbicidal rate of 5% or less (almost no effect))
Southern crabgrass [18]
  F: southern crabgrass, herbicidal effect rating: 0 (Herbicidal rate of 5% or less (almost no effect))
Italian ryegrass [19]
  K: Italian ryegrass, herbicidal effect rating: 0 (Herbicidal rate of 5% or less (almost no effect))
Redroot pigweed [20]; [28]
  herbicidal effect on N: redroot pigweed (criteria 0-5): 5 (Herbicidal rate of 90% or more (almost completely withered))
Velvetleaf [21]; [28]
  herbicidal effect on M: velvetleaf (criteria 0-5): 4 (Herbicidal rate of 70% or more and less than 90%)
Lambsquarters [22]
  O: lambsquarters, herbicidal effect rating: 2 (Herbicidal rate of 20% or more and less than 40%)
False cleavers [23]; [28]
  herbicidal effect on Q: false cleavers (criteria 0-5): 4 (Herbicidal rate of 70% or more and less than 90%)
Green foxtail [24]
  G: green foxtail, herbicidal effect rating: 0 (Herbicidal rate of 5% or less (almost no effect))
Blackgrass [25]; [28]
  herbicidal effect on J: blackgrass (criteria 0-5): 4 (Herbicidal rate of 70% or more and less than 90%)
Wild oat [26]; [28]
  herbicidal effect on I: wild oat (criteria 0-5): 1 (Herbicidal rate of 5% or more and less than 20%)
Rice flat sedge
  herbicidal effect on E: rice flat sedge: 5 (Herbicidal rate of 90% or more (almost completely withered))
Lambsquarters [27]; [28]
  herbicidal effect on O: lambsquarters (criteria 0-5): 3 (Herbicidal rate of 40% or more and less than 70%)

## Cc1nn(C)c(=O)c(-c2c(-c3ccc(F)cc3)sc3cc(F)ccc23)c1O [3-001]
Wild oat [1]
  herbicidal effect, I: wild oat: 4 (Herbicidal rate of 70% or more and less than 90%)
Blackgrass [2]
  herbicidal effect, J: blackgrass: 3 (Herbicidal rate of 40% or more and less than 70%)
Barnyard grass [3]
  herbicidal effect on H: barnyard grass: 5 (Herbicidal rate of 90% or more (almost completely withered))
Persian speedwell [4]; three weeks after application
  R: persian speedwell, herbicidal effect grade: 5 (Herbicidal rate of 90% or more (almost completely withered))
Persian speedwell [5]
  herbicidal effect, R: persian speedwell: 4 (Herbicidal rate of 70% or more and less than 90%)
Windgrass [6]
  herbicidal effect, L: windgrass: 4 (Herbicidal rate of 70% or more and less than 90%)
Barnyard grass [7]
  herbicidal effect, H: barnyard grass: 4 (Herbicidal rate of 70% or more and less than 90%)
Chinese sprangletop
  herbicidal effect on D: Chinese sprangletop: 5 (Herbicidal rate of 90% or more (almost completely withered))
Barnyard grass [8]; three weeks after application
  H: barnyard grass, herbicidal effect grade: 5 (Herbicidal rate of 90% or more (almost completely withered))
Velvetleaf [9]
  herbicidal effect, M: velvetleaf: 0 (Herbicidal rate of 5% or less (almost no effect))
False cleavers [10]
  herbicidal effect, Q: false cleavers: 3 (Herbicidal rate of 40% or more and less than 70%)
Italian ryegrass [11]; three weeks after application
  K: Italian ryegrass, herbicidal effect grade: 5 (Herbicidal rate of 90% or more (almost completely withered))
Chickweed [12]; three weeks after application
  P: chickweed, herbicidal effect grade: 5 (Herbicidal rate of 90% or more (almost completely withered))
Chickweed [13]
  herbicidal effect, P: chickweed: 5 (Herbicidal rate of 90% or more (almost completely withered))
Redroot pigweed [14]
  herbicidal effect, N: redroot pigweed: 5 (Herbicidal rate of 90% or more (almost completely withered))
Green foxtail [15]; three weeks after application
  G: green foxtail, herbicidal effect grade: 5 (Herbicidal rate of 90% or more (almost completely withered))
Windgrass [16]; three weeks after application
  L: windgrass, herbicidal effect grade: 5 (Herbicidal rate of 90% or more (almost completely withered))
Southern crabgrass [17]; three weeks after application
  F: southern crabgrass, herbicidal effect grade: 5 (Herbicidal rate of 90% or more (almost completely withered))
Southern crabgrass [18]
  herbicidal effect, F: southern crabgrass: 5 (Herbicidal rate of 90% or more (almost completely withered))
Italian ryegrass [19]
  herbicidal effect, K: Italian ryegrass: 5 (Herbicidal rate of 90% or more (almost completely withered))
Redroot pigweed [20]; three weeks after application
  N: redroot pigweed, herbicidal effect grade: 5 (Herbicidal rate of 90% or more (almost completely withered))
Velvetleaf [21]; three weeks after application
  M: velvetleaf, herbicidal effect grade: 5 (Herbicidal rate of 90% or more (almost completely withered))
Lambsquarters [22]
  herbicidal effect, O: lambsquarters: 5 (Herbicidal rate of 90% or more (almost completely withered))
False cleavers [23]; three weeks after application
  Q: false cleavers, herbicidal effect grade: 5 (Herbicidal rate of 90% or more (almost completely withered))
Green foxtail [24]
  herbicidal effect, G: green foxtail: 4 (Herbicidal rate of 70% or more and less than 90%)
Blackgrass [25]; three weeks after application
  J: blackgrass, herbicidal effect grade: 5 (Herbicidal rate of 90% or more (almost completely withered))
Wild oat [26]; three weeks after application
  I: wild oat, herbicidal effect grade: 5 (Herbicidal rate of 90% or more (almost completely withered))
Rice flat sedge
  herbicidal effect on E: rice flat sedge: 5 (Herbicidal rate of 90% or more (almost completely withered))
Lambsquarters [27]; three weeks after application
  O: lambsquarters, herbicidal effect grade: 5 (Herbicidal rate of 90% or more (almost completely withered))
